Experimental data reported in ChEMBL document CHEMBL5465560, “Selectivity Literature for EUbOPEN Chemogenomic Library” (2024).

Columns and labels:
[1] = molecular target: Vascular endothelial growth factor receptor 1 (Homo sapiens) (UniProt P17948); assay: Selectivity interaction (KinomeScan (DiscoverX)) EUB0000229b FLT1; conditions: at 10 µM
[2] = molecular target: Mitogen-activated protein kinase 10 (Homo sapiens, UniProt P53779); assay: Selectivity interaction (KinomeScan (DiscoverX)) EUB0000229b MAPK10; conditions: at 10 µM
[3] = molecular target: MAP kinase-interacting serine/threonine-protein kinase 2 (Homo sapiens, UniProt Q9HBH9); assay: Selectivity interaction (KinomeScan (DiscoverX)) EUB0000229b MKNK2; conditions: at 10 µM
[4] = molecular target: Ribosomal protein S6 kinase alpha-5 (Homo sapiens) (UniProt O75582); assay: Selectivity interaction (Kinase panel (DSF assay)) EUB0001559a RPS6KA5
[5] = molecular target: Non-receptor tyrosine-protein kinase TYK2 (Homo sapiens, UniProt P29597); assay: Selectivity interaction (KinomeScan (DiscoverX)) EUB0000045b TYK2; conditions: at 1 µM
[6] = system: Fibroblast growth factor receptor 3 (Homo sapiens), P22607 [K650E]; assay: (§1) Selectivity interaction (Kinase panel (Z-LYTE Assay)) EUB0001632a FGFR3; conditions: at 10 µM
[7] = molecular target: Fibroblast growth factor receptor 3 (Homo sapiens, UniProt P22607); assay: as §1; conditions: at 10 µM
[8] = molecular target: Phosphatidylinositol 4-phosphate 3-kinase C2 domain-containing subunit alpha (Homo sapiens) (UniProt O00443); assay: Selectivity interaction (Adapta Assay) EUB0001632a PIK3C2A; conditions: at 10 µM
[9] = system: Proto-oncogene tyrosine-protein kinase receptor Ret (Homo sapiens), P07949 [M918T]; assay: (§2) Selectivity interaction (KinomeScan (DiscoverX)) EUB0000666a RET; conditions: at 10 µM
[10] = system: Proto-oncogene tyrosine-protein kinase receptor Ret (Homo sapiens), P07949 [V804L]; assay: as §2; conditions: at 10 µM
[11] = system: Proto-oncogene tyrosine-protein kinase receptor Ret (Homo sapiens), P07949 [V804M]; assay: as §2; conditions: at 10 µM
[12] = molecular target: Proto-oncogene tyrosine-protein kinase receptor Ret (Homo sapiens, UniProt P07949); assay: as §2; conditions: at 10 µM
[13] = system: Tyrosine-protein kinase ABL1 (Homo sapiens), P00519 [Q252H]; conditions: at 10 µM
[14] = molecular target: Serine/threonine-protein kinase pim-1 (Homo sapiens, UniProt P11309); assay: Selectivity interaction (KinomeScan (DiscoverX)) EUB0001049a PIM1; conditions: at 1 µM
[15] = molecular target: Serine/threonine-protein kinase PRP4 homolog (Homo sapiens) (UniProt Q13523); assay: Selectivity interaction (KinomeScan (DiscoverX)) EUB0001049a PRPF4B; conditions: at 1 µM
[16] = molecular target: MAP/microtubule affinity-regulating kinase 3 (Homo sapiens) (UniProt P27448); assay: Selectivity interaction (Kinase panel (literature)) EUB0001199aCl MARK3; conditions: at 1 µM
[17] = molecular target: Receptor tyrosine-protein kinase erbB-4 (Homo sapiens, UniProt Q15303); assay: Selectivity interaction (SelectScreen profiling (Invitrogen)) EUB0000607a ERBB4; conditions: at 2 µM
[18] = molecular target: Mitogen-activated protein kinase 1 (Homo sapiens, UniProt P28482); assay: Selectivity interaction (SelectScreen profiling (Invitrogen)) EUB0000607a MAPK1; conditions: at 2 µM
[19] = molecular target: T1, Mitogen-activated protein kinase kinase kinase 5 (Homo sapiens) (UniProt Q99683); assay: Selectivity interaction (ActivX KiNativ screen (kinase selectivity in THP-1 cell lysates)) EUB0000639a MAP3K5; assay type: subcellular; conditions: lysate, at 0.04 µM
T1 sequence (whole entry): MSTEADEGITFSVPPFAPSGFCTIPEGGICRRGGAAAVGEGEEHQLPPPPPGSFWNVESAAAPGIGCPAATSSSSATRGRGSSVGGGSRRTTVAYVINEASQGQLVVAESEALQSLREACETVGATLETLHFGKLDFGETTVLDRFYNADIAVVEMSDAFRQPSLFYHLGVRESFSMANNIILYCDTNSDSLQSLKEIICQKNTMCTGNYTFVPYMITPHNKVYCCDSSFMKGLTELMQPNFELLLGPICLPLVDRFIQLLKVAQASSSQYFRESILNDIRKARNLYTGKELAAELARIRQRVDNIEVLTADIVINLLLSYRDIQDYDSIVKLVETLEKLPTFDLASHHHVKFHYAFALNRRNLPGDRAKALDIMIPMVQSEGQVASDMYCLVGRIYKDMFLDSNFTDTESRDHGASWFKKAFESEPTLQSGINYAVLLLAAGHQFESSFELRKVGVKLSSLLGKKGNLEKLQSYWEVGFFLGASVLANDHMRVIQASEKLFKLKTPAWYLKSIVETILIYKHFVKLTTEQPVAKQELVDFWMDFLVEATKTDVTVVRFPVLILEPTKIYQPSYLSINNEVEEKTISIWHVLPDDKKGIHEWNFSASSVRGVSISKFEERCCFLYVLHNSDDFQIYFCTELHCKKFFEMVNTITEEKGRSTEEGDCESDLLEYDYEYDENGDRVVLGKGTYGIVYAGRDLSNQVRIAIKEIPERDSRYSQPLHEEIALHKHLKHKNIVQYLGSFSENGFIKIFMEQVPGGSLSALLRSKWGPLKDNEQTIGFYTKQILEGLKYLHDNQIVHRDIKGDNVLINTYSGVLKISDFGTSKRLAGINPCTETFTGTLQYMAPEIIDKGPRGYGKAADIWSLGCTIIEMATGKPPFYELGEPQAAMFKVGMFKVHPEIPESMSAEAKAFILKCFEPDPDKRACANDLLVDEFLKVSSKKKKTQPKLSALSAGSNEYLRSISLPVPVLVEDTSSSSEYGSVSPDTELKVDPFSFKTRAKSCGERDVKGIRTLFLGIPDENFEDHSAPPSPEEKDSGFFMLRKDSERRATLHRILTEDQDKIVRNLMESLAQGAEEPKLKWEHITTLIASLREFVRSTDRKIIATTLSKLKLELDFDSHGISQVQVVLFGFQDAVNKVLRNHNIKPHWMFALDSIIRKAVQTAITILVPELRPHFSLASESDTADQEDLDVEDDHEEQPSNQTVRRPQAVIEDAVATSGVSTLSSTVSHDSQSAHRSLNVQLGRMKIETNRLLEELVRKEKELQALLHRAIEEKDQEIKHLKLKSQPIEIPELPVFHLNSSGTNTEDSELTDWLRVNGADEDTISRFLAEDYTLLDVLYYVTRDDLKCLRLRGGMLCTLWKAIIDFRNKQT

[20] = molecular target: Serine/threonine-protein kinase 24 (Homo sapiens) (UniProt Q9Y6E0); assay: Selectivity interaction (ActivX KiNativ screen (kinase selectivity in THP-1 cell lysates)) EUB0000639a STK24; assay type: subcellular; conditions: lysate, at 0.01 µM
[21] = molecular target: Serine/threonine-protein kinase SIK1 (Homo sapiens) (UniProt P57059); assay: Selectivity interaction (Ambit KINOMEscan and KiNATiv profiling in Jurkat cells) EUB0000090b SIK1; assay type: cell-based; conditions: at 1 µM

Serine/threonine-protein kinase 24 (Homo sapiens), sequence (Q9Y6E0 whole entry, looked up): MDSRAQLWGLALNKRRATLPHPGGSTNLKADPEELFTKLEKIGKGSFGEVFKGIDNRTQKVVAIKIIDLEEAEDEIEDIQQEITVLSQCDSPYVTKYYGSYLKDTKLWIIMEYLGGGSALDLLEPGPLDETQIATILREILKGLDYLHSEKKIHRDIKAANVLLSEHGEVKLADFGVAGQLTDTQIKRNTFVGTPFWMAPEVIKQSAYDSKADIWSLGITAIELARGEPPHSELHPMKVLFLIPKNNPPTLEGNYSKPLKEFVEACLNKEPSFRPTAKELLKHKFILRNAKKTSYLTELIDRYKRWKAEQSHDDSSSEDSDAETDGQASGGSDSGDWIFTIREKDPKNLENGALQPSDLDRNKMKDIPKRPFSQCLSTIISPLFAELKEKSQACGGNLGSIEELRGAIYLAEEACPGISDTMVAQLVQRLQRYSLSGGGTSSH
Serine/threonine-protein kinase PRP4 homolog (Homo sapiens), sequence (Q13523 whole entry): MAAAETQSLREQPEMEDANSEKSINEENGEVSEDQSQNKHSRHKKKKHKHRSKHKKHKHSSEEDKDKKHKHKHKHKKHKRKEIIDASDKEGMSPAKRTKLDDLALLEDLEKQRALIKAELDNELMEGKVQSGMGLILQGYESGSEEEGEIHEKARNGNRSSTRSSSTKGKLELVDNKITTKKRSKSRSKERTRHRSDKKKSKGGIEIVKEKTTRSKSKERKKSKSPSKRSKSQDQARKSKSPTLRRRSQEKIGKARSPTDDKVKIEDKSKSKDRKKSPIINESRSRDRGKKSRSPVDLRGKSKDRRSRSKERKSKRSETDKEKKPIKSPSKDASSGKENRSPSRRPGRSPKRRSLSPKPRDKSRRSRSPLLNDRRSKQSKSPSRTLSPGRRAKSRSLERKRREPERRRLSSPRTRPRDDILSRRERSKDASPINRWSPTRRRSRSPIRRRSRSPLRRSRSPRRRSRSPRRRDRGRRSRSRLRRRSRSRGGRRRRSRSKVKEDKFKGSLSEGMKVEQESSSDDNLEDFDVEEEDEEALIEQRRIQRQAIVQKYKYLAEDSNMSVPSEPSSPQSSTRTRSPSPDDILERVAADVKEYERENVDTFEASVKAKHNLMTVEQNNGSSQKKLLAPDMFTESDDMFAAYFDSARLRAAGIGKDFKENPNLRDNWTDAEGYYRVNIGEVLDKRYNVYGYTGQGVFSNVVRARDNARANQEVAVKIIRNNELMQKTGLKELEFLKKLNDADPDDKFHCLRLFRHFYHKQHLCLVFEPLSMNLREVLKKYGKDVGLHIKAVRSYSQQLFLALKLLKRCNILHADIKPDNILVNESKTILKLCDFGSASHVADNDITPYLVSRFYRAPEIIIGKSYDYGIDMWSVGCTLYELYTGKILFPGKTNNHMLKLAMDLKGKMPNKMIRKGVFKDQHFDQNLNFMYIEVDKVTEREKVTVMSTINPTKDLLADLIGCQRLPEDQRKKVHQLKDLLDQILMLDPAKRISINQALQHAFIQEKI
Mitogen-activated protein kinase 1, sequence (P28482 whole entry): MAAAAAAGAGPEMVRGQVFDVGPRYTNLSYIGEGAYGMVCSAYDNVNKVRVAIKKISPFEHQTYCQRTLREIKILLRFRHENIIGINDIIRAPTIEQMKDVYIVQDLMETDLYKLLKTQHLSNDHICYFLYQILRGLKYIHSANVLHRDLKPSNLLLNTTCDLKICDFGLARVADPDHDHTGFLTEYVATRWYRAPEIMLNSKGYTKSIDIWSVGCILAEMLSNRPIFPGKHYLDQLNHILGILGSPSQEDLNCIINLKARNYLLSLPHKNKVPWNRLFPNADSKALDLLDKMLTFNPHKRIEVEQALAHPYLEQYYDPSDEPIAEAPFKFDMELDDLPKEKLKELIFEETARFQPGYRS
Proto-oncogene tyrosine-protein kinase receptor Ret (Homo sapiens), P07949 [M918T], sequence (P07949 whole entry M918T): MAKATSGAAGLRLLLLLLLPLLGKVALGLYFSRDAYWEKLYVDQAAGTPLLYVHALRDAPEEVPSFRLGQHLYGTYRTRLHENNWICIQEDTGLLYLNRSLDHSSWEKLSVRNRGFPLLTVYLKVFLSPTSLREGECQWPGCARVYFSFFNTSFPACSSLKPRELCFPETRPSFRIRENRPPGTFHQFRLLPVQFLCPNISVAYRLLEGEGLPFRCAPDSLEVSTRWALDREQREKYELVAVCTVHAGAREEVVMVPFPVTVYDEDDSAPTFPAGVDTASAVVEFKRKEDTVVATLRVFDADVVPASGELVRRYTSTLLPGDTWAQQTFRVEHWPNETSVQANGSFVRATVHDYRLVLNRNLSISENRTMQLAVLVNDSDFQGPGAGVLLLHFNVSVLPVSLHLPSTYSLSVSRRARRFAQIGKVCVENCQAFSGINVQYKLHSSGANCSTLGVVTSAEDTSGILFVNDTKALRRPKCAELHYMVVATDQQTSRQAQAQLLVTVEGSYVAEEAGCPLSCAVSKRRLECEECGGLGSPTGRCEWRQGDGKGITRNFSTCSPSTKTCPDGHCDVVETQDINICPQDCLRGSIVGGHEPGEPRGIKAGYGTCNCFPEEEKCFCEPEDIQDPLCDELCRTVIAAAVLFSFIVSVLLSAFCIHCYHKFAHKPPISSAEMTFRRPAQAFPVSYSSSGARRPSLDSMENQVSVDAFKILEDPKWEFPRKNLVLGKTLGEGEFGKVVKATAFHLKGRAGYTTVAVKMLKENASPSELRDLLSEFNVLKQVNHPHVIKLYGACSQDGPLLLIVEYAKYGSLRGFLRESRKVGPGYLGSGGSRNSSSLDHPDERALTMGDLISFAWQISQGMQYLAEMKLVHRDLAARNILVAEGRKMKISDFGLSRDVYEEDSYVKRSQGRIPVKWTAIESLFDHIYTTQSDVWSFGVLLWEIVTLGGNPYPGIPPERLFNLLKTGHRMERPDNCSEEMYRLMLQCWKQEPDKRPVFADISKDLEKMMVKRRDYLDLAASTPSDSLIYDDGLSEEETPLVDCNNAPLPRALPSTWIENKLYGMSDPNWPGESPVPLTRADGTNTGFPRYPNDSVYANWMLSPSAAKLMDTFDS
Serine/threonine-protein kinase pim-1, sequence (P11309 whole entry, looked up): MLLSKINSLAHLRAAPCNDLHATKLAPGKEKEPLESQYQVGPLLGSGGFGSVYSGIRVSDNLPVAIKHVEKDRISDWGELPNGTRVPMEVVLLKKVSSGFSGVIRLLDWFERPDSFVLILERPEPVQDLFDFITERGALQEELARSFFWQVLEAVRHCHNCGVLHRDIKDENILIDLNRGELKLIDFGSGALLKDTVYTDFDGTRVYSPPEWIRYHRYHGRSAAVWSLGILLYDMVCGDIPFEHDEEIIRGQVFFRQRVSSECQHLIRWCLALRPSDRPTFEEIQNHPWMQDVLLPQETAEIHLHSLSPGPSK
Vascular endothelial growth factor receptor 1 (Homo sapiens), sequence (P17948 whole entry): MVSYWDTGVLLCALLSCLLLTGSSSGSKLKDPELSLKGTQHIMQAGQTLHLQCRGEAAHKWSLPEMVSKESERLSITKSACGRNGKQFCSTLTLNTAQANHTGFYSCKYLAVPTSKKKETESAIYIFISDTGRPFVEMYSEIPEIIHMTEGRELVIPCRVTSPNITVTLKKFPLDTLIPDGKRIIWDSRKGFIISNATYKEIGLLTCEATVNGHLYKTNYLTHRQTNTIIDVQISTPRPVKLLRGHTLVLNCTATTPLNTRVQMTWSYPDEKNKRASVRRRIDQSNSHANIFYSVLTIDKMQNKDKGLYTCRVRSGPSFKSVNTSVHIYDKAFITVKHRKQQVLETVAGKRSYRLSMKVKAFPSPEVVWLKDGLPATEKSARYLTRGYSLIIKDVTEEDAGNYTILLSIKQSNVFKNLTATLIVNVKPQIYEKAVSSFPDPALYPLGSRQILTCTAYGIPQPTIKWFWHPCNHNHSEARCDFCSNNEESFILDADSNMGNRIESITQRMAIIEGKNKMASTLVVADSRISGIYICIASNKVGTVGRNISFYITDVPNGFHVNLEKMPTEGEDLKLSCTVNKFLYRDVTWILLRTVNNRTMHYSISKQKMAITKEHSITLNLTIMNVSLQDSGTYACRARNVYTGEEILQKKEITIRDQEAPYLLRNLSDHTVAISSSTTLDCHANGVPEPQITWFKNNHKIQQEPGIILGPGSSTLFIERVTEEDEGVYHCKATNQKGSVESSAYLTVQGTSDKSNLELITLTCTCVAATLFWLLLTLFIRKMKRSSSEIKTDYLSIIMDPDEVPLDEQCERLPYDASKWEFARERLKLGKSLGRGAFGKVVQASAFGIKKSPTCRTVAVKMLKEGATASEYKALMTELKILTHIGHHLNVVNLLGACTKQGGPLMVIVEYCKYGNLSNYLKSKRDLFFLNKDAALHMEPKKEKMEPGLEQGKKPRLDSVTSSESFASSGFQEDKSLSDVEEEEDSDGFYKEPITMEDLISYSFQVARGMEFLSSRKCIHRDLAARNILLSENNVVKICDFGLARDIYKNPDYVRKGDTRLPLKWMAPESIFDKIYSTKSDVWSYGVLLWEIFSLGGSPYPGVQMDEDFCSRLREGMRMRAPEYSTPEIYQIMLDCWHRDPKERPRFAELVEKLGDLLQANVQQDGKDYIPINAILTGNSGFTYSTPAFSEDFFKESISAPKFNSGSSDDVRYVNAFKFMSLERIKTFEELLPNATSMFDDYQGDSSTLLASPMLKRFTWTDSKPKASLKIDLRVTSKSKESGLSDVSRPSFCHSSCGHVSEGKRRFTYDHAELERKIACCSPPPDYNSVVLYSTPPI
Proto-oncogene tyrosine-protein kinase receptor Ret (Homo sapiens), P07949 [V804L], sequence (P07949 whole entry V804L): as the sequence (P07949 whole entry M918T) above, with V804L, T918M counted along it
Proto-oncogene tyrosine-protein kinase receptor Ret (Homo sapiens), P07949 [V804M], sequence (P07949 whole entry V804M): as the sequence (P07949 whole entry M918T) above, with V804M, T918M counted along it
Proto-oncogene tyrosine-protein kinase receptor Ret, sequence (P07949 whole entry): as the sequence (P07949 whole entry M918T) above, with T918M counted along it

Compound `COc1cc(N(C)c2ccnc3ccc(C(F)(F)F)cc23)cc(OC)c1OC` has a % binding [1] of 100%, a % binding [2] of 88% and a % binding [3] of 90%.

In the case of `CN(C(=O)c1cnn2cccnc12)c1cc2c(cc1N1CCOCC1)C(=O)N(C[C@@H](F)C(C)(C)O)C2`, the dTM [4] is reported as 0.3 K.

With `C=CC(=O)Nc1cc(-n2c(=O)ccc3cnc4ccc(-c5ccc(NS(C)(=O)=O)cc5)cc4c32)ccc1C` the % of control [5] was 80%.

With `Cn1cc(-n2cnc3c(NCc4nc5cc(Cl)c(Cl)cc5[nH]4)nc(N4CCOCC4)nc32)cn1` the % of control [6] was 19.3%, the % of control [7] was 4.08% and the % of inhibition [8] was 5.89%.

`O=C(NOC[C@H](O)CO)c1ccc(F)c(F)c1Nc1ccc(I)cc1F` showed a % of control [9] of 79%, a % of control [10] of 93% and a % of control [11] of 100%. It also gave a % of control [12] of 90%.

Work on `Cc1cc([C@@H](C)Nc2ccccc2C(=O)O)c2nc(N3CCOCC3)cc(=O)n2c1` [AZD-6482] yielded a % of control [13] of 100%.

Compound `COc1cc(Nc2nc(C)cc(-c3cnn4nc(OC)ccc34)n2)cc(C(F)(F)F)c1` has a % of control [14] of 100% and a % of control [15] of 100%.

In the case of `CN1Cc2nccc(-c3cn(C)nc3-c3ccc(F)cc3)c2C1=O`, the % of inhibition [16] is reported as -2%.

For `CNC(=O)Nc1ccc(-c2nc(N3CC4CCC(C3)O4)c3cnn(C4CCC5(CC4)OCCO5)c3n2)cc1`, the % of inhibition [17] was 3% and the % of inhibition [18] was 0%.

Compound `CC[C@@H]1[C@H](F)C(=O)N[C@@H]1COc1nccc2cc(C(N)=O)c(OC)cc12` [ZIMLOVISERTIB] has a % of inhibition [19] of -7.7% and a % of inhibition [20] of 3.8%.

Compound `CN(C)C/C=C/C(=O)Nc1ccc(C(=O)N2CCCC(Nc3ncc(Cl)c(-c4c[nH]c5ccccc45)n3)C2)cc1` (stereo unspecified) has a % of control [21] of 98%.
